For orientation: melting point means the temperature of the solid-liquid transition. Usually IC50 stands for the concentration at which inhibition is half-maximal.

The results in this text go back to US8937068B2, “Pyridopyrazine derivatives and their use” (Zentaris GmbH, priority 2005, dated 2015).

One data set has as its target p38alpha (Homo sapiens (Human), UniProt Q16539). Put plainly: Cell-free kinase assay (ALPHA technology), p38alpha. In kind it is biochemical. The conditions noted are these: 10 μM ATP. How it is done:
(§1) The inhibitory effect of the compounds according to the invention was tested on various serine/threonine, tyrosine and lipid kinases in enzymatic assays. Recombinant human kinases such as, for example, Erk2, PI3Kalpha, -beta, -gamma, -delta, p38alpha, p38gamma, Jnk1, Jnk2 and others were used in this case, partly as full-length kinases, partly as shortened fragments, but at least consisting of the functional kinase domains. The commercial kinase proteins (Proqinase, Upstate) were used as recombinant fusion proteins with GST (glutathion-S-transferase) or His-Tag. Depending on the type of substrate, the various kinase reactions were quantified by means of suitable ALPHA™ beads (Perkin-Elmer).
(§2) The substance testing is described in detail hereinafter for the Erk assay.
(§3) a) MAPK-ALPHAs (e.g. Erk2): the test substance, 0.625 ng Erk2 (#14-173, Upstate), 10 μM ATP and 15 nM biotinylated MBP (myelin basic protein) substrate were incubated on a 384-well Optiplate (Perkin-Elmer) in a volume of 15 μl for 1 h in 25 mM Tris, 10 mM MgCl2, 0.1% Tween-20, 100 μM NaVO4, 2 mM DTT at pH 7.5. The kinase reaction was then stopped by adding 10 μl of the ALPHA bead mixes (10 μg/ml, #6760617/Perkin-Elmer) pre-incubated with anti-phospho MBP antibody (320 pM, #05-429/Upstate) in 25 mM Tris, 200 mM NaCl, 110 nM EDTA and 0.3% BSA and left to stand overnight. b) PI3K-ALPHAs (e.g. PI3Kalpha): the test substance, 1 ng PI3Kalpha (#14-602, Upstate), 100 μM ATP and 20 μM PIP2 substrate (#P4508, Echelon) were incubated on a 384-well Optiplate (Perkin-Elmer) for 1 h in 50 mM Hepes, 50 mM NaCl, 5 mM MgCl2, 0.05% Chaps, 5 mM DTT at pH 7.4. The kinase reaction was then stopped by adding ALPHA bead mixes (10 μg/ml, #6760603/Perkin-Elmer) pre-incubated with 1 nM GST:Grp1 fusion protein (Upstate) and 15 nM biotinylated PIP3 (#C-39B6/Echelon) in 50 mM Hepes, 50 mM NaCl, 50 mM EDTA and 0.1% BSA and left to stand overnight.
(§4) The fluorescence was detected the following morning in a Fusion™^aα-system (Perkin-Elmer).
(§5) The %-inhibition values per substance concentration were calculated by means of the following formula from the raw data determined in the Fusion™ ? :
(§6) Eight determinations were made for each control and two for the substance samples. The 0% control either contains no ATP or no substrate, the 100% control (fully active kinase) contains no test substance. The IC50 values were determined using GraphPadPrism.

Another data set concerns the target PI3Kalpha (Homo sapiens (Human), UniProt P42336). The experiment in a line: Cell-free kinase assay (ALPHA technology), PI3Kalpha. Type of data set: biochemical. Particulars: 100 μM ATP. How it is done: as §1, §2, §3, §4, §5, §6
Another data set concerns the target Erk2 (Homo sapiens, UniProt P28482). The experiment in a line: Cell-free kinase assay (ALPHA technology), Erk2. In kind it is biochemical. Particulars: 10 μM ATP. The procedure: The inhibitory effect of the compounds according to the invention was tested on various serine/threonine, tyrosine and lipid kinases in enzymatic assays. […] The commercial kinase proteins (Proqinase, Upstate) were used as recombinant fusion proteins with GST (glutathion-S-transferase) or His-Tag. Depending on the type of substrate, the various kinase reactions were quantified by means of suitable ALPHA™ beads (Perkin-Elmer). The substance testing is described in detail hereinafter for the Erk assay. […] a) MAPK-ALPHAs (e.g. […] The kinase reaction was then stopped by adding ALPHA bead mixes (10 μg/ml, #6760603/Perkin-Elmer) pre-incubated with 1 nM GST:Grp1 fusion protein (Upstate) and 15 nM biotinylated PIP3 (#C-39B6/Echelon) in 50 mM Hepes, 50 mM NaCl, 50 mM EDTA and 0.1% BSA and left to stand overnight. The fluorescence was detected the following morning in a Fusion™^aα-system (Perkin-Elmer). […] Eight determinations were made for each control and two for the substance samples. […] The IC50 values were determined using GraphPadPrism.

The subject of another data set is Jnk1 + Jnk2. Put plainly: Cell-free kinase assay (ALPHA technology), Jnk1 + Jnk2. Type of data set: biochemical, human. Particulars: 10 μM ATP. How it is done:
as §1, §2, §3, §4, §5, §6

PI3Kalpha, sequence (P42336 whole entry, the tested form may be a part): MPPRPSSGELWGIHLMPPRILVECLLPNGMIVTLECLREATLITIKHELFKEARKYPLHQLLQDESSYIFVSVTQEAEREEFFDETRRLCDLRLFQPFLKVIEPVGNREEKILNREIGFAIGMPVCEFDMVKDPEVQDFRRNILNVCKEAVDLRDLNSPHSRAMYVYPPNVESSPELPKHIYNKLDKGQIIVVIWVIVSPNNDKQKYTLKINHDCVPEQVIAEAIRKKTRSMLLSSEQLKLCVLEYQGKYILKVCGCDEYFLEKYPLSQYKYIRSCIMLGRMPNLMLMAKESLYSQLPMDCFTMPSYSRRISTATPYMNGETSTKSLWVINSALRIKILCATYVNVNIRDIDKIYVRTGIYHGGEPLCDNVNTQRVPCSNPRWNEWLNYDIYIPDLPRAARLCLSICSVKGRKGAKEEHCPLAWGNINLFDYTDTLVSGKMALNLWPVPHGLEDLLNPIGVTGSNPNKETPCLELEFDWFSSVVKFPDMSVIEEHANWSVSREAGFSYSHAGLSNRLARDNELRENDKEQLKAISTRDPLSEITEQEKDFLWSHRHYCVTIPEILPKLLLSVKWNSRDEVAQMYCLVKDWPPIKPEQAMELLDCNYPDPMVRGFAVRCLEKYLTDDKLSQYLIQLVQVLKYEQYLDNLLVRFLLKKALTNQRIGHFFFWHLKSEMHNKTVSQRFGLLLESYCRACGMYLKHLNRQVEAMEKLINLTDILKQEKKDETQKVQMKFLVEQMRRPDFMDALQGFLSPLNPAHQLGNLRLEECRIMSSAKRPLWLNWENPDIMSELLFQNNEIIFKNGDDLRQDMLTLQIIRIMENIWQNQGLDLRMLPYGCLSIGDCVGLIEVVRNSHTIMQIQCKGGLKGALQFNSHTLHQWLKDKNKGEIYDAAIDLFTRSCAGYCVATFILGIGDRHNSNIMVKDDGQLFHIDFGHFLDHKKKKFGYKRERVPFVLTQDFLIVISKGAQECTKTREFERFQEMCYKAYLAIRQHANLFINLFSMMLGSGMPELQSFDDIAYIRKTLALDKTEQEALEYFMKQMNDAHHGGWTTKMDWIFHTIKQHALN
PI3Kalpha, sequence (P27986 whole entry partner, the tested form may be a part): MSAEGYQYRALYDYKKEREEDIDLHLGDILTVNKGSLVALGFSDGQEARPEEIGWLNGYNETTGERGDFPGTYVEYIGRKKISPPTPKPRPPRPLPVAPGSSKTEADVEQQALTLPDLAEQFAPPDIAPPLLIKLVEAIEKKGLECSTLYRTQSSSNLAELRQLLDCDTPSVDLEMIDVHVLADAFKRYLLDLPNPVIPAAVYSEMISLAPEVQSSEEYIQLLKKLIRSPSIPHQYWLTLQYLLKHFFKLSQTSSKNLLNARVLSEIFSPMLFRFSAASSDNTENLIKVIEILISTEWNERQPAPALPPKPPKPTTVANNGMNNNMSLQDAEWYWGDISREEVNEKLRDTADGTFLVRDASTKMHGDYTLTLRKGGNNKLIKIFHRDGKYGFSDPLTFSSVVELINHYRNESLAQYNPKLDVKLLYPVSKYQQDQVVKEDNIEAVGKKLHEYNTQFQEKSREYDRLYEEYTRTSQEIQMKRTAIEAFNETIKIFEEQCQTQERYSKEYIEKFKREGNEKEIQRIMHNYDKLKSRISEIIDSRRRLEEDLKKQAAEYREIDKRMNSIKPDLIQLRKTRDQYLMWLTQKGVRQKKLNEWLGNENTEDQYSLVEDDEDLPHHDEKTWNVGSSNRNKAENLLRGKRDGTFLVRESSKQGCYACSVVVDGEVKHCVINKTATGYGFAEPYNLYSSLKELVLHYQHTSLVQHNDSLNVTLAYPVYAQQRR
p38alpha, sequence (Q16539 whole entry, the tested form may be a part): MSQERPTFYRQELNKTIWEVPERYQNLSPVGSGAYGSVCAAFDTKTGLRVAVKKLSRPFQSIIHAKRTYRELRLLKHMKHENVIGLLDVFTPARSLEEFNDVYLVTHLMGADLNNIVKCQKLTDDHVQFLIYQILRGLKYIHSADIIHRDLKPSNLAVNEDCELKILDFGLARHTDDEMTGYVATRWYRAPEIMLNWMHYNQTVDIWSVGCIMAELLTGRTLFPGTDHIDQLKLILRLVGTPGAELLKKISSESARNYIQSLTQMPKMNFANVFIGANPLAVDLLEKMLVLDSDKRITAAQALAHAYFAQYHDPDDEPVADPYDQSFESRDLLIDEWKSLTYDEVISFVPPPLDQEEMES
Erk2, sequence (P28482 2-360 limits assumed): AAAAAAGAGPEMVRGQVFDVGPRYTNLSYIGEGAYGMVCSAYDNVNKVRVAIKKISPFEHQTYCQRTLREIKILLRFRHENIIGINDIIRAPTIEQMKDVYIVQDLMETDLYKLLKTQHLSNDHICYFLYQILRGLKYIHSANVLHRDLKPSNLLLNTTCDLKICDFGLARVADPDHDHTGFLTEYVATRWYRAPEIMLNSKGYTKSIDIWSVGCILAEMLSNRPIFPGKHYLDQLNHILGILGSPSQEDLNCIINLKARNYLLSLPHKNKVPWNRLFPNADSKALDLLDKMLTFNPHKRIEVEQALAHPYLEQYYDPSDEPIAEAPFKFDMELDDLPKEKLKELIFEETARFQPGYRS

As for `C=CCNC(=S)Nc1ccc2ncc(-c3cccc(O)c3)nc2n1` [Compound 27, 1-allyl-3-[3-(3-hydroxy-phenyl)-pyrido[2,3-b]pyrazin-6-yl]-thiourea], the melting point was 205 °C (dec.).

In turn, `CNC(=S)Nc1ccc2ncc(-c3ccc([N+](=O)[O-])cc3)nc2n1` [Compound 22, 1-methyl-3-[3-(4-nitro-phenyl)-pyrido[2,3-b]pyrazin-6-yl]-thiourea] yielded a melting point of 270 °C.

With `S=C(NCc1ccccc1)Nc1ccc2ncc(-c3ccccc3)nc2n1` [Compound 13, 1-benzyl-3-(3-phenyl-pyrido[2,3-b]pyrazin-6-yl)-thiourea], the melting point fell in the range of 232 to 233 °C.

As for `C=CCNC(=S)Nc1ccc2nc(-c3ccc(O)cc3)c(-c3ccc(O)cc3)nc2n1` [Compound 32, 1-allyl-3-[2,3-bis-(4-hydroxy-phenyl)-pyrido[2,3-b]pyrazin-6-yl]-thiourea], the melting point was 270 °C (dec.).

On to `C=CCNC(=S)Nc1ccc2nc(-c3ccc(O)cc3)cnc2n1` [Compound 34, 1-allyl-3-[2-(4-hydroxy-phenyl)-pyrido[2,3-b]pyrazin-6-yl]-thiourea], for which the melting point is 260 °C (dec.).

For `CCNC(=O)Nc1ccc2ncc(-c3c(C)n[nH]c3C)nc2n1` [Compound 172, 1-[3-(3,5-Dimethyl-1H-pyrazol-4-yl)-pyrido[2,3-b]pyrazin-6-yl]-3-ethyl-urea], the IC50 at p38alpha is more than 100 µM; against PI3Kalpha, 4 µM; at Erk2 it was 0.41 µM; in the data set with Jnk1 + Jnk2 it was 4 µM.

Regarding `O=C(NCCCO)Nc1ccc2ncc(-c3ccccc3)nc2n1` [Compound 147, 1-(3-Hydroxy-propyl)-3-(3-phenyl-pyrido[2,3-b]pyrazin-6-yl)-urea], the IC50 was more than 100 µM against p38alpha, 4.1 µM against PI3Kalpha, 0.711 µM against Erk2 and 14.2 µM in the data set on Jnk1 + Jnk2.

With `CCNC(=O)Nc1ccc2ncc(Nc3cnccn3)nc2n1` [Compound 181, 1-Ethyl-3-[3-(pyrazin-2-ylamino)-pyrido[2,3-b]pyrazin-6-yl]-urea], the IC50 on p38alpha is more than 100 µM; against PI3Kalpha it was 0.739 µM; on Erk2, 1.7 µM; in the data set with Jnk1 + Jnk2 it was 4.3 µM.

As to `CCNC(=O)Nc1ccc2ncc(-c3ccc(Cl)cc3OC)nc2n1` [Compound 171, 1-[3-(4-Chloro-2-methoxy-phenyl)-pyrido[2,3-b]pyrazin-6-yl]-3-ethyl-urea], the IC50 on p38alpha is more than 100 µM; at PI3Kalpha, 3 µM; on Erk2 it was 0.084 µM; with Jnk1 + Jnk2, 1.4 µM.

For `CCNC(=O)Nc1ccc2ncc(Nc3ccc(C)c(OC)c3)nc2n1` [Compound 163, 1-Ethyl-3-[3-(3-methoxy-4-methyl-phenylamino)-pyrido[2,3-b]pyrazin-6-yl]-urea], the IC50 against p38alpha is more than 100 µM; at PI3Kalpha it was 0.096 µM; against Erk2, 26.9 µM; in the data set with Jnk1 + Jnk2, more than 31.6 µM.

On to `CCNC(=O)Nc1ccc2ncc(-c3ccc(OCCCN4CCOCC4)cc3)nc2n1` [Compound 148, 1-Ethyl-3-{3-[4-(3-morpholin-4-yl-propoxy)-phenyl]-pyrido[2,3-b]pyrazin-6-yl}-urea], for which the IC50 on p38alpha was more than 100 µM; at PI3Kalpha, 1.4 µM; on Erk2 it was 1.8 µM; in the data set with Jnk1 + Jnk2, 13.7 µM.

Take `CCNC(=O)Nc1ccc2ncc(-c3ccc(O)cc3)nc2n1` [Compound 43, 1-Ethyl-3-[3-(4-hydroxy-phenyl)-pyrido[2,3-b]pyrazin-6-yl]-urea]: the IC50 against p38alpha was more than 100 µM; against PI3Kalpha, 6.2 µM; at Erk2, 0.006 µM; in the data set on Jnk1 + Jnk2 it was 5.5 µM.

Consider `CCNC(=O)Nc1ccc2ncc(Nc3ccc(OC)c(Cl)c3)nc2n1` [Compound 177, 1-[3-(3-Chloro-4-methoxy-phenylamino)-pyrido[2,3-b]pyrazin-6-yl]-3-ethyl-urea], for which the IC50 on p38alpha is more than 100 µM; on PI3Kalpha it was 0.295 µM; on Erk2, more than 31.6 µM; with Jnk1 + Jnk2 it was 3.9 µM.

For the compound `CCNC(=O)Nc1ccc2ncc(Nc3ccc(C)c(O)c3)nc2n1` [Compound 188, 1-Ethyl-3-[3-(3-hydroxy-4-methyl-phenylamino)-pyrido[2,3-b]pyrazin-6-yl]-urea], the IC50 at p38alpha is more than 100 µM; against PI3Kalpha it was 2.8 µM; on Erk2 it was more than 100 µM; in the data set on Jnk1 + Jnk2, more than 31.6 µM.

With `CCNC(=O)Nc1ccc2ncc(-c3cccc(C(=O)O)c3)nc2n1` [Compound 152, 3-[6-(3-Ethyl-ureido)-pyrido[2,3-b]pyrazin-3-yl]-benzoic acid], the IC50 is more than 100 µM against p38alpha, 5.3 µM at PI3Kalpha, 1.9 µM against Erk2 and 12.1 µM in the data set on Jnk1 + Jnk2.

Take `CCNC(=O)Nc1ccc2ncc(Nc3cccnc3)nc2n1` [Compound 161, 1-Ethyl-3-[3-(pyridin-3-ylamino)-pyrido-[2,3-b]pyrazin-6-yl]-urea]: the IC50 was more than 100 µM on p38alpha, 1.1 µM at PI3Kalpha, more than 100 µM against Erk2 and more than 100 µM with Jnk1 + Jnk2.

As for `CCNC(=O)Nc1ccc2ncc(-c3cccc(O)c3)nc2n1` [Compound 151, 1-Ethyl-3-[3-(3-hydroxy-phenyl)-pyrido[2,3-b]pyrazin-6-yl]-urea], the IC50 was more than 100 µM against p38alpha, 1.5 µM against PI3Kalpha, 0.104 µM against Erk2 and 2.9 µM in the data set on Jnk1 + Jnk2.

As to “1-[3-(3,5-Dichloro-4-hydroxy-phenyl)-pyrido[2,3-b]pyrazin-6-yl]-3-ethyl-urea [Compound 186]”, the IC50 is more than 100 µM at p38alpha, 3.8 µM against PI3Kalpha, 0.223 µM on Erk2 and 2.5 µM in the data set with Jnk1 + Jnk2.

With `COc1cc(-c2cnc3ccc(NC(=O)NCCCCO)nc3n2)ccc1O` [Compound 168, 1-(4-Hydroxy-butyl)-3-[3-(4-hydroxy-3-methoxy-phenyl)-pyrido[2,3-b]pyrazin-6-yl]-urea], the IC50 on p38alpha is more than 100 µM; against PI3Kalpha it was 0.612 µM; against Erk2 it was 0.15 µM; in the data set with Jnk1 + Jnk2, 2.5 µM.

Turning to `CCNC(=O)Nc1ccc2ncc(Nc3cnc4ccccc4c3)nc2n1` [Compound 179, 1-Ethyl-3-[3-(chinolin-3-ylamino)-pyrido[2,3-b]pyrazin-6-yl]-urea], the IC50 worked out at 1.4 µM on p38alpha, 0.202 µM against PI3Kalpha, 8 µM against Erk2 and 8.1 µM in the data set with Jnk1 + Jnk2.

With `CCNC(=O)Nc1ccc2ncc(Nc3cc(Cl)c(O)c(Cl)c3)nc2n1` [Compound 185, 1-[3-(3,5-Dichloro-4-hydroxy-phenylamino)-pyrido[2,3-b]pyrazin-6-yl]-3-ethyl-urea], the IC50 was more than 100 µM at p38alpha, 0.154 µM on PI3Kalpha, more than 31.6 µM at Erk2 and 4.3 µM in the data set on Jnk1 + Jnk2.

As to `CCNC(=S)Nc1ccc2ncc(-c3ccc(O)cc3)nc2n1` [Compound 149, 1-Ethyl-3-[3-(4-hydroxy-phenyl)-pyrido[2,3-b]pyrazin-6-yl]-thiourea], the IC50 on p38alpha was more than 100 µM; at PI3Kalpha, 3.5 µM; on Erk2, 0.954 µM; in the data set with Jnk1 + Jnk2, more than 31.6 µM.

On to `CCNC(=O)Nc1ccc2ncc(Nc3ccnc(Cl)c3)nc2n1` [Compound 184, 1-[3-(2-Chloro-pyridin-4-ylamino)-pyrido[2,3-b]pyrazin-6-yl]-3-ethyl-urea], for which the IC50 against p38alpha was more than 100 µM; against PI3Kalpha, 0.133 µM; against Erk2 it was more than 100 µM; in the data set on Jnk1 + Jnk2, 6.3 µM.
